The source of these data is ChEMBL document CHEMBL4007496, “Isolation and characterization of diterpene glycosides from Siegesbeckia pubescens” (Bioorg Med Chem Lett, 2017).

The IC50 is the midpoint of a concentration-inhibition curve.

One assay has as its system RAW264.7. Briefly: Antiinflammatory activity in mouse RAW264.7 cells assessed as inhibition of LPS-induced nitric oxide production preincubated for 30 mins followed by LPS challenge measured after 24 hrs by Griess assay. Format: functional, cell-based. On the technique in general: Nitrite, measured by Griess reagent, commonly stands in for NO production.
The subject of another assay is MDA-MB-231. Briefly: Inhibition of EGF-induced invasion of human MDA-MB-231 cells by MTT assay. Format: functional, cell-based. (Formazan colour is commonly taken as a measure of viable cells.)

Some results are limits rather than exact numbers.

Regarding `CC1(C)[C@@H](O[C@@H]2O[C@H](CO)[C@@H](O)[C@H](O)[C@H]2O)CC[C@@]2(C)[C@@H]3CC[C@](C)([C@@H](O)CO)C=C3CC[C@H]12`, the IC50 in the assay with RAW264.7 is > 100 µM; in the assay with MDA-MB-231, 24.8 µM. Take `CC1(C)[C@H]2CCC3=C(CC[C@](C)([C@@H](O)CO)C3)[C@]2(C)CC[C@H]1O[C@@H]1O[C@H](CO)[C@@H](O)[C@H](O)[C@H]1O`: the IC50 was > 100 µM in the assay with RAW264.7 and > 25 µM with MDA-MB-231. Taken in the same sequence, the figures for `CC1(C)[C@H]2CCC3=C[C@@](C)(C=O)CC[C@H]3[C@]2(C)CC[C@H]1O[C@@H]1O[C@H](CO)[C@@H](O)[C@H](O)[C@H]1O` were > 100 µM and > 25 µM. Consider `CC1(C)[C@H]2CCC3=C[C@@](C)([C@H](O)CO)CC[C@H]3[C@]2(C)CC[C@H]1O[C@@H]1O[C@H](CO)[C@@H](O)[C@H](O)[C@H]1O`, for which the IC50 in the assay on RAW264.7 was > 100 µM; in the assay with MDA-MB-231 it was 0.27 µM.

For the compound `C=C1C[C@]23CC[C@@H]4[C@](C)(CO[C@@H]5O[C@H](CO)[C@@H](O)[C@H](O)[C@H]5O)CC(=O)C[C@@]4(C)[C@@H]2CC[C@@]1(O)C3`, the IC50 in the assay with RAW264.7 is > 100 µM; with MDA-MB-231 it was 26.8 µM. The corresponding values for `CC1(C)[C@H]2CCC3=C[C@@](C)([C@@H](O)CO)CC[C@H]3[C@]2(C)CC[C@H]1O[C@@H]1O[C@H](CO)[C@@H](O)[C@H](O)[C@H]1O` are > 100 µM and > 25 µM. For `CC1(C)[C@H](O)CC[C@@]2(C)[C@@H]3CC[C@](C)([C@@H](O)CO)C=C3CC[C@H]12` [DARUTIGENOL], the IC50 in the assay on MDA-MB-231 was > 25 µM.
